{"source": "patent US20250360185A1", "about": "“COMPOSITIONS COMPRISING PEDF-DERIVED SHORT PEPTIDES FOR THE TREATMENT OF DRY EYE DISEASES” (BRIM Biotechnology, Inc., priority 2022, published 2025)", "tested_on": "subjects with DED", "test": "Visual analog scale (VAS) ocular symptom ratings, clinical study with CAE model", "type": "in vivo, human", "conditions": "for VAS Burning/Stinging Change from Baseline, ANCOVA LS Mean Difference (SE), BRM421 OS − Placebo / VAS Burning/Stinging Change from Baseline, Two-Sample t-test Sample Mean Difference (SE), BRM421 OS − Placebo / VAS Eye Dryness Change from Baseline, ANCOVA LS Mean Difference (SE), BRM421 OS − Placebo / VAS Eye Dryness Change from Baseline, Two-Sample t-test Sample Mean Difference (SE), BRM421 OS − Placebo / VAS Photophobia Change from Baseline, ANCOVA LS Mean Difference (SE), BRM421 OS − Placebo / VAS Photophobia Change from Baseline, Two-Sample t-test Sample Mean Difference (SE), BRM421 OS − Placebo / VAS Burning/Stinging Change from Baseline, ANCOVA LS Mean (SE) / VAS Eye Dryness Change from Baseline, ANCOVA LS Mean (SE) / VAS Photophobia Change from Baseline, ANCOVA LS Mean (SE) / VAS Burning/Stinging Change from Baseline, Mean (SD) / VAS Eye Dryness Change from Baseline, Mean (SD) / VAS Photophobia Change from Baseline, Mean (SD): ITT; for VAS Burning/Stinging Change from Baseline, ANCOVA LS Mean (SE) / VAS Eye Dryness Change from Baseline, ANCOVA LS Mean (SE) / VAS Photophobia Change from Baseline, ANCOVA LS Mean (SE) / VAS Burning/Stinging Change from Baseline, Mean (SD) / VAS Eye Dryness Change from Baseline, Mean (SD) / VAS Photophobia Change from Baseline, Mean (SD): baseline last Pre-CAE measure; for VAS Burning/Stinging Change from Baseline, Mean (SD) / VAS Eye Dryness Change from Baseline, Mean (SD) / VAS Photophobia Change from Baseline, Mean (SD): 0-100 mm line", "method": "A multi-center, randomized, double masked, placebo controlled clinical study was conducted to assess the safety and efficacy of BRM421 ophthalmic solution (OS) in subjects with DED using a controlled adverse environment (CAE®) model (Ora, Inc., Andover, MA, USA). CAE® uses controlled ocular surface stress to exacerbate the signs and symptoms of DED in a safe and controllable manner.\nDuring the first visit (Day-7±1), the subjects were screened, evaluated before CAE®, exposed to CAE®, evaluated after CAE®, and started with the placebo run-in period (7±1 days). During the 7-day study run-in period (for the purpose of subject selection) prior to randomization, all subjects received Placebo OS bilaterally, three times daily (TID). During the second visit, subjects were evaluated before CAE®, exposed to CAE®, and evaluated after CAE®. These evaluations formed the baseline measurements. The subjects were then randomized into two groups to receive either BRM421 ophthalmic solution (OS) or Placebo OS (Vehicle) bilaterally three times daily (TID) for 14 days from Visit 2 to Visit 4.\nDuring these visits, subjects were evaluated for symptom efficacy. Specifically, visual analog scale (VAS) was measured by asking subjects to rate each ocular symptom due to ocular dryness. Symptoms assessed include burning/stinging, itching, foreign body sensation, blurred vision, eye dryness, photophobia, and pain.", "key": {"[1]": {"conditions": "Visit 3, post-CAE evaluations as baselines"}}}
{"sequence": "SLGAEQRTESIIHRALYYDLISSPDIHGT (listed as Homo sapiens) [BRM421, PEDF-derived short peptide, 29mer, residues 93-121; tested as BRM421 ophthalmic solution (OS)]", "values": [{"measurement": "VAS burning/stinging compared to placebo (FIG. 4C, FIG. 4D)", "setting": "DED and cataract, with or without cataract surgery", "result": "significant improvements"}, {"measurement": "VAS burning/stinging, subjects with cataract surgery compared to subjects without cataract surgery", "setting": "FIG. 4D versus FIG. 4C", "result": "more improvements"}, {"measurement": "VAS Burning/Stinging Change from Baseline, ANCOVA LS Mean Difference (SE), BRM421 OS − Placebo", "setting": "Visit 3 (Day 8)", "result": "−6.8 (2.31) mm"}, {"measurement": "VAS Burning/Stinging Change from Baseline, Two-Sample t-test Sample Mean Difference (SE), BRM421 OS − Placebo", "setting": "Visit 3 (Day 8)", "result": "−5.9 (2.58) mm"}, {"measurement": "VAS Eye Dryness Change from Baseline, ANCOVA LS Mean Difference (SE), BRM421 OS − Placebo", "setting": "Visit 3 (Day 8)", "result": "−5.3 (2.33) mm"}, {"measurement": "VAS Eye Dryness Change from Baseline, Two-Sample t-test Sample Mean Difference (SE), BRM421 OS − Placebo", "setting": "Visit 3 (Day 8)", "result": "−4.7 (2.53) mm"}, {"measurement": "VAS Photophobia Change from Baseline, ANCOVA LS Mean Difference (SE), BRM421 OS − Placebo", "setting": "Visit 3 (Day 8)", "result": "−4.5 (2.19) mm"}, {"measurement": "VAS Photophobia Change from Baseline, Two-Sample t-test Sample Mean Difference (SE), BRM421 OS − Placebo", "setting": "Visit 3 (Day 8)", "result": "−4.2 (2.33) mm"}, {"measurement": "VAS Burning/Stinging Change from Baseline, ANCOVA LS Mean (SE)", "setting": "Visit 3 (Day 8)", "result": "−9.8 (1.67) mm"}, {"measurement": "VAS Eye Dryness Change from Baseline, ANCOVA LS Mean (SE)", "setting": "Visit 3 (Day 8)", "result": "−9.4 (1.69) mm"}, {"measurement": "VAS Photophobia Change from Baseline, ANCOVA LS Mean (SE)", "setting": "Visit 3 (Day 8)", "result": "−6.2 (1.59) mm"}, {"measurement": "VAS Burning/Stinging Change from Baseline, Mean (SD)", "setting": "Visit 3 (Day 8)", "result": "−8.8 (20.35) mm"}, {"measurement": "VAS Eye Dryness Change from Baseline, Mean (SD)", "setting": "Visit 3 (Day 8)", "result": "−8.4 (19.22) mm"}, {"measurement": "VAS Photophobia Change from Baseline, Mean (SD)", "setting": "Visit 3 (Day 8)", "result": "−5.6 (15.49) mm"}, {"measurement": "Mean changes from baseline in burning/stinging, eye dryness and photophobia compared to placebo", "setting": "Visit 3, ITT Population, FIG. 2A", "result": "significant difference"}, {"measurement": "VAS burning/stinging relative to placebo (FIG. 2B)", "setting": "[1]", "result": "significant improvement"}, {"measurement": "VAS dryness relative to placebo (FIG. 2B)", "setting": "[1]", "result": "less significant improvement"}, {"measurement": "VAS dryness and VAS burning/stinging relative to placebo (FIG. 2B)", "setting": "Visit 3, pre-CAE evaluations as baselines", "result": "significant improvements"}, {"measurement": "VAS Burning/Stinging Change from Baseline, ANCOVA LS Mean Difference (SE), BRM421 OS − Placebo", "setting": "Visit 4 (Day 15)", "result": "−3.8 (2.58) mm"}, {"measurement": "VAS Burning/Stinging Change from Baseline, Two-Sample t-test Sample Mean Difference (SE), BRM421 OS − Placebo", "setting": "Visit 4 (Day 15)", "result": "−2.9 (2.85) mm"}, {"measurement": "VAS Eye Dryness Change from Baseline, ANCOVA LS Mean Difference (SE), BRM421 OS − Placebo", "setting": "Visit 4 (Day 15)", "result": "0.8 (2.66) mm"}, {"measurement": "VAS Eye Dryness Change from Baseline, Two-Sample t-test Sample Mean Difference (SE), BRM421 OS − Placebo", "setting": "Visit 4 (Day 15)", "result": "1.2 (2.80) mm"}, {"measurement": "VAS Photophobia Change from Baseline, ANCOVA LS Mean Difference (SE), BRM421 OS − Placebo", "setting": "Visit 4 (Day 15)", "result": "−3.5 (2.26) mm"}, {"measurement": "VAS Photophobia Change from Baseline, Two-Sample t-test Sample Mean Difference (SE), BRM421 OS − Placebo", "setting": "Visit 4 (Day 15)", "result": "−3.2 (2.40) mm"}, {"measurement": "VAS Burning/Stinging Change from Baseline, ANCOVA LS Mean (SE)", "setting": "Visit 4 (Day 15)", "result": "−10.0 (1.86) mm"}, {"measurement": "VAS Eye Dryness Change from Baseline, ANCOVA LS Mean (SE)", "setting": "Visit 4 (Day 15)", "result": "−9.2 (1.92) mm"}, {"measurement": "VAS Photophobia Change from Baseline, ANCOVA LS Mean (SE)", "setting": "Visit 4 (Day 15)", "result": "−7.8 (1.63) mm"}, {"measurement": "VAS Burning/Stinging Change from Baseline, Mean (SD)", "setting": "Visit 4 (Day 15)", "result": "−9.0 (21.26) mm"}, {"measurement": "VAS Eye Dryness Change from Baseline, Mean (SD)", "setting": "Visit 4 (Day 15)", "result": "−8.4 (21.48) mm"}, {"measurement": "VAS Photophobia Change from Baseline, Mean (SD)", "setting": "Visit 4 (Day 15)", "result": "−7.3 (16.50) mm"}, {"measurement": "VAS dryness, burning/stinging and photophobia versus baseline (FIG. 2A)", "setting": "Visits 3 and 4 relative to Visit 2 pre-CAE baseline", "result": "showed improvements over the baseline"}, {"measurement": "Onset of effects", "setting": "inferred from significant difference to placebo at Visit 3", "result": "relatively fast onset"}, {"measurement": "VAS burning/stinging (FIG. 4B)", "setting": "patients with both DED and cataract, pre-CAE and post-CAE evaluations", "result": "very significant improvements"}, {"measurement": "VAS burning/stinging (FIG. 4A)", "setting": "patients with only DED (without cataract), pre-CAE or post-CAE evaluations", "result": "no significant improvements"}, {"measurement": "VAS dryness (FIG. 4G, FIG. 4H)", "setting": "subjects with cataract regardless of the surgery status, pre-CAE and post-CAE evaluations", "result": "significant improvements"}]}
